How the values were obtained:
human P‐gp (MDR1‐MDCK) = human P‐gp (MDR1‐MDCK) (Homo sapiens, UniProt P08183); test: Bidirectional permeability and efflux ratio in MDR1‐MDCK cells; format: in vitro ADME; details: MDR1‐MDCK cell line; for Efflux ratio: P app(B–A)/P app(A–B)
Caco‐2 cell line = test: Bidirectional permeability and efflux ratio in Caco‐2 cells; format: in vitro ADME, human; details: for Efflux ratio: P app(B–A)/P app(A–B)
[1] = Rat pharmacokinetic study, IV single bolus; details: for Vd / half-life / clearance: male, Sprague-Dawley, in vivo, iv
[2] = test system: efflux transporters (eg, P‐gp, BCRP, MRPs); test: Classification as efflux transporter substrate; details: for Efflux transporter substrate: Yes/No; for Class (based on membrane permeability and ER value): parental MDCK, MDR1‐MDCK, and Caco‐2 cell lines
[3] = Rat brain and blood microdialysis at steady state; details: for concentration at 6 h: male, Sprague-Dawley, in vivo, iv, C m,brain
[4] = Bidirectional permeability in parental MDCK cells; format: in vitro ADME, Canine; details: dog, MDCK
human P-gp (MDR1) = human P-gp (MDR1) (Homo sapiens, UniProt P08183); test: Bidirectional permeability and efflux ratio in MDR1‐MDCK cells; format: in vitro ADME; details: human; for Papp A→B at 2 h, 1 μmol/L / Papp B→A at 2 h, 1 μmol/L: MDCK-MDR1; for efflux ratio at 2 h, 1 μmol/L: MDCK-MDR1, Efflux ratio, MDR1‐MDCK cell line, P app(B–A)/P app(A–B)
human P-gp (MDR1), sequence (P08183 whole entry): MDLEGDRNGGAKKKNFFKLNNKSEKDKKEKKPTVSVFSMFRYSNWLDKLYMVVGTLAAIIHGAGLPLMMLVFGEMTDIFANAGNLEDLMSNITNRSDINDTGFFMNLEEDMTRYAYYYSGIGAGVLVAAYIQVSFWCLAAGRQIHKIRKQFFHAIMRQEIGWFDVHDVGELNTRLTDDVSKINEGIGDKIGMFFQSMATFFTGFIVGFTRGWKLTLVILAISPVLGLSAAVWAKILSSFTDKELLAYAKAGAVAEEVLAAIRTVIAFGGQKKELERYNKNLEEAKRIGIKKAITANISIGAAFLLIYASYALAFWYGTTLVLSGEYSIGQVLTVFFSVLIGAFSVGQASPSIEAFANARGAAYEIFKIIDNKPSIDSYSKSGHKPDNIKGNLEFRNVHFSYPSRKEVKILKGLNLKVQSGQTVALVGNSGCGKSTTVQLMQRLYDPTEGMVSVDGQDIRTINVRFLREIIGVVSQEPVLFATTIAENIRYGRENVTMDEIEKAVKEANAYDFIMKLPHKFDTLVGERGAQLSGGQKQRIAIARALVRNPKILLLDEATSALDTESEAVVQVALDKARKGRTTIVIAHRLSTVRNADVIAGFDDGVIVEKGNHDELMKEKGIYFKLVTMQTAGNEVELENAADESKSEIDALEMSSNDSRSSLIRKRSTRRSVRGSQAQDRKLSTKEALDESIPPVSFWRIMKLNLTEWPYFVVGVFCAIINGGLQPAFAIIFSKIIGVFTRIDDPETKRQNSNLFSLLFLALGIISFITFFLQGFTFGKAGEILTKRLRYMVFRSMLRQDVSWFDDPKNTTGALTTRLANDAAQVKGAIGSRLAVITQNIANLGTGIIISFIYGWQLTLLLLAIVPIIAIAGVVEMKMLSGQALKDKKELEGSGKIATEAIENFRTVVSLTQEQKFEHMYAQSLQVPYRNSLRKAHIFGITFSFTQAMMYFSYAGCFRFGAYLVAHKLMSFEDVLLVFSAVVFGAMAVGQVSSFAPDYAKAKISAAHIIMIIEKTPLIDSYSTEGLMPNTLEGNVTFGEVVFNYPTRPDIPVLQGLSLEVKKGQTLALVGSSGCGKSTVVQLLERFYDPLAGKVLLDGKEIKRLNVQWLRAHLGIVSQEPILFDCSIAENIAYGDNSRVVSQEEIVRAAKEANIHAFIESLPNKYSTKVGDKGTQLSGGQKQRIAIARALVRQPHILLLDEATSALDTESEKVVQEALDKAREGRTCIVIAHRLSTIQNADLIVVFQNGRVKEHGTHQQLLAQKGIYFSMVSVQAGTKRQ

[5] = Bidirectional permeability and efflux ratio in Caco‐2 cells; format: in vitro ADME, human; details: human; for Papp A→B at 2 h, 5 μmol/L / Papp B→A at 2 h, 5 μmol/L: Caco-2; for efflux ratio at 2 h, 5 μmol/L: Caco-2, Efflux ratio, Caco‐2 cell line, P app(B–A)/P app(A–B)
[6] = Rat microdialysis at additional two brain positions; format: in vivo; details: steady state, n = 3, mean ± SD
[7] = cited from earlier work
MDCK cell line = test: Bidirectional permeability in parental MDCK cells; format: in vitro ADME, Canine; details: MDCK cell line, 1 μmol/L, 2 hours, 10 uM Cyclosporin A, n = 4
[8] = Caco‐2 cell line, 5 μmol/L, 2 hours, n = 4
[9] = IV single bolus, n = 3, mean ± SD
[10] = rat, steady‐state unbound concentration in brain (right striatum), microdialysis, IV infusion, mean ± SD

human P‐gp (MDR1‐MDCK), sequence (P08183 whole entry): as above

Compound | Efflux ratio (human P‐gp (MDR1‐MDCK)) | Efflux ratio (Caco‐2 cell line; Caco‐2 cell line) | Efflux transporter substrate [2] | Class (based on membrane permeability and ER value) [2] | Papp A→B at 2 h, 1 μmol/L [4] [×10⁻⁶ cm/s] | Papp B→A at 2 h, 1 μmol/L [4] [×10⁻⁶ cm/s] | Papp at 2 h, 1 μmol/L [4] [×10⁻⁶ cm/s] | Papp A→B at 2 h, 1 μmol/L (human P-gp (MDR1)) [×10⁻⁶ cm/s] | Papp B→A at 2 h, 1 μmol/L (human P-gp (MDR1)) [×10⁻⁶ cm/s] | Papp A→B at 2 h, 5 μmol/L [5] [×10⁻⁶ cm/s] | Papp B→A at 2 h, 5 μmol/L [5] [×10⁻⁶ cm/s] | Vd [1] [L/kg] | half-life [1] [h] | concentration at 6 h [3, 10] [nM] | clearance [1] [mL/min/kg] | other results
Cc1c(N)c(=O)n(-c2ccccc2)n1C [4‐Aminoantipyrine, 4‐aminoantipyrine] | 0.662 | 0.713 | No | Class I |  |  |  |  |  |  |  |  |  |  |  | P app(A–B) (human P‐gp (MDR1‐MDCK); 1 μmol/L, 2 hours, n = 4): 39.1 ± 3.4 10^−6 cm/s; P app(B–A) (human P‐gp (MDR1‐MDCK); 1 μmol/L, 2 hours, n = 4): 25.9 ± 1.7 10^−6 cm/s; Efflux ratio (human P‐gp (MDR1‐MDCK); listed as 4‐aminoantipyrine): less than 2.0; P app(A–B) (Caco‐2 cell line; [8]): 36.1 ± 2.5 10^−6 cm/s; P app(B–A) (Caco‐2 cell line; [8]): 25.8 ± 1.5 10^−6 cm/s; Efflux ratio (Caco‐2 cell line; Caco‐2 cell line, listed as 4‐aminoantipyrine): less than 2.0; T 1/2 [1, 9]: 0.883 ± 0.025 h; V ss [1, 9]: 0.772 ± 0.018 L/kg; CL ([1]; plasma, IV single bolus, n = 3, mean ± SD): 17.7 ± 0.8 mL/min/kg; C csf ([3]; concentration in CSF at end of infusion (6 hours), rat, n = 3‐4, mean ± SD): 5.82 ± 0.49 µmol/L; C csf lower than C m,brain by ([3]; rat, steady state): about 25%; C m,blood ([3]; steady‐state unbound concentration in blood, microdialysis, rat, IV infusion, n = 3‐4, mean ± SD): 6.73 ± 0.32 µmol/L; C m,brain ([3]; steady‐state unbound concentration in brain (right striatum), microdialysis, rat, IV infusion, mean ± SD): 7.71 ± 0.67 µmol/L
CC(=O)Nc1ccc(O)cc1 [Acetaminophen] |  |  |  |  | 16.7 ± 0.6 | 14.2 ± 0.9 | 15.5 ± 1.5 | 18.5 ± 4.6 | 14.3 ± 0.9 | 19.6 ± 2.1 | 19.6 ± 1.9 | 2.87 ± 1.44 | 4.96 ± 2.31 | 3450 ± 820 |  | C m,brain ([6]; Frontal cortex): 4.79 ± 0.34 µmol/L; C m,brain ([6]; Hypothalamus): 4.62 ± 0.82 µmol/L
Cc1cc(=O)n(-c2ccccc2)n1C [Antipyrine] |  |  | No | Class I |  |  |  | 38.2 ± 2.1 | 25.8 ± 1.9 | 36.2 ± 1.2 | 25.1 ± 0.6 | 0.724 ± 0.051 | 1.99 ± 0.43 |  | 4.81 ± 0.77 | C m,brain ([6]; Frontal cortex): 3.66 ± 1.19 µmol/L; C m,brain ([6]; Hypothalamus): 3.81 ± 0.25 µmol/L
NC(=O)N1c2ccccc2C=Cc2ccccc21 [Carbamazepine, carbamazepine] | 0.665 | 0.662 | No | Class I | 34.2 ± 2.6 |  | 27.5 ± 7.5 | 34.3 ± 1.2 | 22.8 ± 0.5 | 33.1 ± 2.3 | 22 ± 1 | 0.745 ± 0.081 | 0.993 ± 0.115 | 1370 ± 170 | 18.1 ± 2.9 | Efflux ratio (human P‐gp (MDR1‐MDCK); listed as carbamazepine): less than 2.0; Efflux ratio (Caco‐2 cell line; Caco‐2 cell line, listed as carbamazepine): less than 2.0; C csf higher than C m,brain by ([3]; rat, steady state): 25%
CN/C(=N/CCSCc1nc[nH]c1C)NC#N [Cimetidine] | 1.68 | 9.20 | Yes | Class II | 0.963 ± 0.26 | 2.37 ± 0.16 | 1.67 ± 0.78 | 1.91 ± 0.93 | 3.22 ± 0.389 | 0.706 ± 0.204 | 6.49 ± 1.37 | 3.3 ± 1.93 | 5.91 ± 4.71 | 1420 ± 370 | 53.7 ± 4.8 | efflux ratio at 2 h, 1 μmol/L (human P-gp (MDR1)): < 2; Efflux ratio (Caco‐2 cell line; Caco‐2 cell line, listed as cimetidine): greater than 2.0; ER after treatment with novobiocin (Caco‐2 cell line; Caco‐2 cells treated with novobiocin (BCRP inhibitor), supplemental data): 3.29
CN(C)CCCC1(c2ccc(F)cc2)OCc2cc(C#N)ccc21 (stereo not drawn) [Citalopram, citalopram] | 1.72 | 1.09 | No | Class I | 19 ± 3.1 | 10.9 ± 2.6 | 15 ± 5.1 | 13.8 ± 3.2 | 23.7 ± 0.7 | 16 ± 1.8 | 17.4 ± 1.4 | 6.45 ± 0.64 | 1.02 ± 0.05 | 954 ± 91 | 95.9 ± 11.2 | efflux ratio at 2 h, 1 μmol/L (human P-gp (MDR1)): < 2; efflux ratio at 2 h, 5 μmol/L [5]: < 2
COc1ccc([C@@H]2Sc3ccccc3N(CCN(C)C)C(=O)[C@@H]2OC(C)=O)cc1 [Diltiazem, diltiazem] | 1.49 | 0.926 | No | Class I | 23.2 ± 2.6 | 13.6 ± 1.3 | 18.4 ± 5.5 | 12.5 ± 3.1 | 18.7 ± 1.9 | 21.7 ± 2.3 | 20.1 ± 2.3 | 2.85 ± 0.3 | 0.823 ± 0.325 |  | 97.7 ± 18.8 | efflux ratio at 2 h, 1 μmol/L (human P-gp (MDR1)): < 2; Efflux ratio (Caco‐2 cell line; Caco‐2 cell line, listed as diltiazem): less than 2.0; reported mean values of rat plasma CL [7]: 90.3 mL/min/kg
Nc1nc(O)c2ncn(COC(CO)CO)c2n1 [Ganciclovir, ganciclovir] |  |  |  |  |  |  |  |  |  |  |  | 0.852 ± 0.159 | 1.35 ± 0.04 | 2230 ± 960 | 21.5 ± 1.4 | 
Nc1nnc(-c2cccc(Cl)c2Cl)c(N)n1 [Lamotrigine, lamotrigine] |  |  |  |  |  |  |  |  |  |  |  | 1.86 ± 0.18 | 15.6 ± 3 | 757 ± 42 | 1.48 ± 0.21 | reported mean values of rat plasma CL [7]: 0.83 mL/min/kg; C csf higher than C m,brain by ([3]; rat, steady state): 45%
CC1COc2c(N3CCN(C)CC3)c(F)cc3c(=O)c(C(=O)O)cn1c23 (stereo not drawn) [Ofloxacin, ofloxacin] |  |  |  |  |  |  |  |  |  |  |  | 5.08 ± 2.99 | 6.32 ± 3.34 | 678 ± 293 | 32.5 ± 4.9 | 
Nc1nc2[nH]cc(CCc3ccc(C(=O)N[C@@H](CCC(=O)O)C(=O)O)cc3)c2c(=O)[nH]1 [Pemetrexed, pemetrexed] | 0.623 | 1.81 | Yes (?) | Class II | 0.452 ± 0.092 | 0.793 ± 0.148 | 0.623 ± 0.215 | 0.709 ± 0.236 | 0.442 ± 0.252 | 0.392 ± 0.207 | 0.707 ± 0.443 | 0.637 ± 0.272 | 4.97 ± 1.15 | 31.3 ± 19.3 | 14 ± 1.8 | Average P app (MDCK cell line): 0.623 10^−6 cm/s; Efflux ratio (human P‐gp (MDR1‐MDCK); listed as pemetrexed): less than 2.0; efflux ratio at 2 h, 5 μmol/L [5]: < 2; difference in steady‐state unbound drug concentrations between the brain and blood ([3]; brain lower than blood, rat microdialysis): 86 fold
Cn1c(=O)c2[nH]cnc2n(C)c1=O [Theophylline, theophylline] |  |  |  |  |  |  |  |  |  |  |  | 0.453 ± 0.048 | 3.42 ± 1.02 | 4520 ± 2110 | 1.58 ± 0.52 | reported mean values of rat plasma CL [7]: 2.39 mL/min/kg

From article PMC7138916 (Pharmacology Research & Perspectives, 2020)
